Assay results reported in patent publication US20230346831A1, “METHODS FOR TREATING […] USING LOW DOSE CARBON MONOXIDE” (priority 2020, published 2023).
Where “and” joins values, the source holds several entries; their conditions need not be identical. Equal values may be shown once.

System: MDA-MB-231/TGL cells
Assay: metabolomic assay (polar metabolite profiling, mass spectrometry)
Type: cell-based, human
Method: Cells were seeded in a 10 cm cell culture plate with DMEM containing 10% FBS, 0.2 mM L-glutamine and 1% penicillin/streptomycin. After 16 hours of incubation, metabolites were extracted from the cells using 80% methanol. The remaining steps were carried out with no change according to the methods of Goncalves et al, PNAS, 115:4, E743-E752 (2018). All data analyses were done using MetaboAnalyst.
7 × 10^6 cells were seeded in 10-cm cell culture plates with DMEM containing 10% FBS, 0.2 mM L-glutamine and 1% penicillin/streptomycin. Additionally, MCF7/TGL/pQ was cultured in media containing 0.5 µgml^-1 puromycin and 25 mM HEPES. After 16 hours of incubation, metabolites were extracted from the cells using 80% methanol. The remaining steps were carried out by Weill Cornell Medicine Proteomics and Metabolomics Core Facility according to M. D. Goncalves et al., Proc Natl Acad Sci USA 115, E743-E752 (2018). All data analyses were done using MetaboAnalyst 4.0 (www.metaboanalyst.ca/).
To investigate whether 250 ppm CO mimics hypoxia, the HiF1α protein levels were examined in CO treated MCF7/TGL and MDA-MB-231/TGL cells. […] To determine whether 250 ppm CO affects metabolism, polar metabolites were profiled using two breast cancer cell lines, MCF7/TGL and MDA-MB-231/TGL (FIGS. 7-9).

[1] = MDA-MB-231/TGL cells treated with CO (250 ppm), replicates CO 1-3
[2] = MDA-MB-231/TGL cells, 250 ppm CO, 16 hours

Structure (SMILES): [C-]#[O+] [CO, Carbon monoxide]
- Peak Height of metabolite intensity: L-Aspartic acid (HMDB00191) [1]: 9,529,167 and 11,274,240 and 16,105,810
- Peak Height of metabolite intensity: L-Carnitine (HMDB00062) [1]: 180,708,600 and 186,528,100 and 206,022,400
- Peak Height of metabolite intensity: L-Cystathionine (HMDB00099) [1]: 371,785 and 449,627 and 589,036
- Peak Height of metabolite intensity: L-Dihydroorotic acid (HMDB03349) [1]: 281,053 and 429,139 and 448,915
- Peak Height of metabolite intensity: L-Glutamic acid (HMDB00148) [1]: 655,681,000 and 727,466,400 and 916,546,500
- Peak Height of metabolite intensity: L-Glutamine (HMDB00641) [1]: 1,601,450,000 and 1,636,785,000 and 1,523,599,000
- Peak Height of metabolite intensity: L-Histidine (HMDB00177) [1]: 120,776,800 and 113,578,300 and 158,867,000
- Peak Height of metabolite intensity: L-Isoleucine (HMDB00172) [1]: 271,615,500 and 275,153,400 and 327,851,400
- Peak Height of metabolite intensity: L-Kynurenine (HMDB00684) [1]: 280,930 and 306,374 and 392,315
- Peak Height of metabolite intensity: L-Lactic acid (HMDB00190) [1]: 289,904,000 and 340,883,500 and 383,011,600
- Peak Height of metabolite intensity: L-Leucine (HMDB00687) [1]: 283,061,200 and 273,188,600 and 323,263,900
- Peak Height of metabolite intensity: L-Lysine (HMDB00182) [1]: 24,306,150 and 24,075,250 and 28,401,380
- Peak Height of metabolite intensity: L-Methionine (HMDB00696) [1]: 84,626,580 and 79,234,880 and 99,088,640
- Peak Height of metabolite intensity: L-Palmitoylcarnitine (HMDB00222) [1]: 73,260 and 167,693 and 194,186
- Peak Height of metabolite intensity: L-Phenylalanine (HMDB00159) [1]: 221,726,300 and 225,785,500 and 288,325,000
- Peak Height of metabolite intensity: L-Proline (HMDB00162) [1]: 612,301,800 and 622,349,000 and 718,183,500
- Peak Height of metabolite intensity: L-Serine (HMDB00187) [1]: 47,600,670 and 48,117,350 and 49,703,860
- Peak Height of metabolite intensity: L-Threonine (HMDB00167) [1]: 137,793,200 and 134,164,900 and 175,180,900
- Peak Height of metabolite intensity: L-Tryptophan (HMDB00929) [1]: 29,250,240 and 30,006,710 and 37,673,960
- Peak Height of metabolite intensity: L-Tyrosine (HMDB00158) [1]: 62,958,740 and 63,148,990 and 80,943,860
- Peak Height of metabolite intensity: L-Valine (HMDB00883) [1]: 112,753,800 and 120,589,500 and 133,489,100
- Peak Height of metabolite intensity: Malic acid (HMDB00744) [1]: 185,995,600 and 208,411,100 and 232,110,400
- Peak Height of metabolite intensity: Mannitol (HMDB00765) [1]: 9,124,205 and 9,515,589 and 10,944,240
- Peak Height of metabolite intensity: Methionine sulfoxide (HMDB02005) [1]: 1,343,863 and 1,483,506 and 1,747,311
- Peak Height of metabolite intensity: Methylimidazoleacetic acid (HMDB02820) [1]: 1,358,938 and 1,418,950 and 1,508,563
- Peak Height of metabolite intensity: Myoinositol (HMDB00211) [1]: 29,719,830 and 34,248,940 and 40,470,300
- Peak Height of metabolite intensity: N6,N6,N6-Trimethyl-L-lysine (HMDB01325) [1]: 1,450,139 and 1,666,314 and 1,913,626
- Peak Height of metabolite intensity: N6-Acetyl-L-lysine (HMDB00206) [1]: 127,774 and 112,788 and 139,608
- Peak Height of metabolite intensity: N-Acetyl-L-alanine (HMDB00766) [1]: 3,499,773 and 3,556,484 and 4,596,263
- Peak Height of metabolite intensity: N-Acetyl-L-aspartic acid (HMDB00812) [1]: 82,644,790 and 91,504,070 and 102,958,000
- Peak Height of metabolite intensity: N-Acetyl-L-methionine (HMDB11745) [1]: 2,318,960 and 1,894,539 and 2,276,345
- Peak Height of metabolite intensity: N-Acetyl-glucosamine 1-phosphate (HMDB01367) [1]: 1,300,461 and 800,586 and 850,336
- Peak Height of metabolite intensity: N-Acetylasparagine (HMDB06028) [1]: 90,904 and 92,805 and 102,592
- Peak Height of metabolite intensity: N-Acetylaspartylglutamic acid (HMDB01067) [1]: 473,464 and 613,919 and 690,837
- Peak Height of metabolite intensity: N-Acetylglutamic acid (HMDB01138) [1]: 7,524,119 and 8,837,337 and 8,010,711
- Peak Height of metabolite intensity: N-Acetylglutamine (HMDB06029) [1]: 1,923,159 and 2,058,882 and 2,006,294
- Peak Height of metabolite intensity: N-Acetylornithine (HMDB03357) [1]: 261,750 and 259,387 and 327,139
- Peak Height of metabolite intensity: N-Acetylputrescine (HMDB02064) [1]: 5,287,508 and 7,257,189 and 5,943,667
- Peak Height of metabolite intensity: N-Formyl-L-methionine (HMDB01015) [1]: 2,242,009 and 2,343,563 and 2,318,203
- Peak Height of metabolite intensity: NAD (HMDB00902) [1]: 17,332,970 and 21,051,080 and 23,992,650
- Peak Height of metabolite intensity: NADH (HMDB01487) [1]: 583,067 and 148,307 and 116,715
- Peak Height of metabolite intensity: NADP (HMDB00217) [1]: 120,286 and 98,434 and 96,478
- Peak Height of metabolite intensity: NADPH (HMDB00221) [1]: 71,492 and 67,909 and 76,928
- Peak Height of metabolite intensity: Niacinamide (HMDB01406) [1]: 1,982,720 and 1,686,510 and 1,871,343
- Peak Height of metabolite intensity: Nicotinamide ribotide (HMDB00229) [1]: 110,026 and 75,372 and 93,843
- Peak Height of metabolite intensity: Ornithine (HMDB00214) [1]: 960,744 and 1,035,848 and 1,261,077
- Peak Height of metabolite intensity: Orotic acid (HMDB00226) [1]: 303,308 and 293,998 and 226,604
- Peak Height of metabolite intensity: Oxidized glutathione (HMDB03337) [1]: 3,793,739 and 4,422,168 and 4,949,576
- Peak Height of metabolite intensity: Oxoglutaric acid (HMDB00208) [1]: 40,551,530 and 45,257,220 and 44,892,300
- Peak Height of metabolite intensity: Pantothenic acid (HMDB00210) [1]: 66,785,200 and 78,653,480 and 81,031,300
- Peak Height of metabolite intensity: Phenylacetylglycine (HMDB00821) [1]: 1,773,254 and 1,725,235 and 1,760,408
- Peak Height of metabolite intensity: Phenyllactic acid (HMDB00779) [1]: 59,693 and 75,824 and 89,853
- Peak Height of metabolite intensity: Phosphoenolpyruvic acid (HMDB00263) [1]: 1,119,695 and 505,583 and 468,849
- Peak Height of metabolite intensity: Phosphorylcholine (HMDB01565) [1]: 926,340,400 and 954,637,100 and 1,004,940,000
- Peak Height of metabolite intensity: Propionylcamitine (HMDB00824) [1]: 42,262,630 and 48,738,950 and 53,591,860
- Peak Height of metabolite intensity: Pyridoxine (HMDB00239) [1]: 9,272,513 and 10,102,820 and 10,351,980
- Peak Height of metabolite intensity: Pyroglutamic acid (HMDB00267) [1]: 95,285,270 and 98,786,160 and 116,343,300
- Peak Height of metabolite intensity: Pyruvic acid (HMDB00243) [1]: 2,402,001 and 2,700,020 and 2,237,894
- Peak Height of metabolite intensity: Riboflavin (HMDB00244) [1]: 84,676 and 97,270 and 112,665
- Peak Height of metabolite intensity: S-Adenosylmethionine (HMDB01185) [1]: 6,948,937 and 8,437,885 and 9,944,495
- Peak Height of metabolite intensity: S-Lactoylglutathione (HMDB01066) [1]: 2,114,224 and 2,485,483 and 1,817,914
- Peak Height of metabolite intensity: Sedoheptulose 1,7-bisphosphate (HMDB60274) [1]: 119,260 and 114,671 and 139,219
- Peak Height of metabolite intensity: Succinic acid (HMDB00254) [1]: 9,808,415 and 11,432,620 and 14,473,460
- Peak Height of metabolite intensity: Taurine (HMDB00251) [1]: 250,114,800 and 184,320,000 and 217,876,200
- Peak Height of metabolite intensity: Taurochenodesoxycholic acid (HMDB00951) [1]: 47,031 and 60,620 and 60,122
- Peak Height of metabolite intensity: Thiamine (HMDB00235) [1]: 24,404,230 and 28,664,720 and 27,656,500
- Peak Height of metabolite intensity: Threonic acid (HMDB00943) [1]: 107,442,800 and 103,948,700 and 114,088,000
- Peak Height of metabolite intensity: Thymidine 5′-triphosphate (HMDB01342) [1]: 177,094 and 147,940 and 156,549
- Peak Height of metabolite intensity: Thymidine (HMDB00273) [1]: 143,606 and 96,280 and 76,717
- Peak Height of metabolite intensity: Thymine (HMDB00262) [1]: 962,069 and 884,966 and 960,234
- Peak Height of metabolite intensity: Ureidosuccinic acid (HMDB00828) [1]: 1,132,717 and 1,612,814 and 1,811,192
- Peak Height of metabolite intensity: Uric acid (HMDB00289) [1]: 2,415,527 and 1,430,740 and 933,580
- Peak Height of metabolite intensity: Uridine 5′-diphosphate (HMDB00295) [1]: 2,964,858 and 3,462,504 and 2,781,952
- Peak Height of metabolite intensity: Uridine 5′-monophosphate (HMDB00288) [1]: 904,984 and 1,359,673 and 975,233
- Peak Height of metabolite intensity: Uridine (HMDB00296) [1]: 1,893,519 and 318,302 and 299,157
- Peak Height of metabolite intensity: Uridine diphosphate glucose (HMDB00286) [1]: 4,959,327 and 5,703,347 and 6,869,287
- Peak Height of metabolite intensity: Uridine diphosphate-N-acetylglucosamine (HMDB00290) [1]: 20,151,160 and 26,809,930 and 32,502,900
- Peak Height of metabolite intensity: Uridine triphosphate (HMDB00285) [1]: 1,308,516 and 1,268,414 and 1,538,242
- Peak Height of metabolite intensity: Urocanic acid (HMDB00301) [1]: 334,329 and 651,672 and 192,858
- Peak Height of metabolite intensity: Xanthine (HMDB00292) [1]: 1,967,615 and 1,894,384 and 2,180,514
- Peak Height of metabolite intensity: Xanthylic acid (HMDB01554) [1]: 36,455 and 11,062 and 9,617
- Peak Height of metabolite intensity: cis-Aconitic acid (HMDB00072) [1]: 20,740,980 and 23,097,840 and 24,649,890
- Peak Height of metabolite intensity: dCTP (HMDB00998) [1]: 7,042
- Peak Height of metabolite intensity: dGDP (HMDB00960) [1]: 10,335,950 and 11,215,290 and 10,659,650
- Peak Height of metabolite intensity: dUMP (HMDB01409) [1]: 484,834 and 490,872 and 603,149
- citric acid and phosphoenolpyruvic acid [2]: did not provide statistically significant results
- nine common metabolites (fumaric acid, L-Dihydroorotic acid, D-2-Hydroxyglutaric, malic acid, NAD, GDP-glucose, pyruvic acid, inosinic acid, oxoglutaric acid) [2]: significantly downregulated
- pyruvic acid, oxoglutaric acid, malic acid, and fumaric acid (TCA intermediates) [2]: significantly downregulated
- abundance of metabolites tested (metabolomics profiling) (MDA-MB-231/TGL cells, 250 ppm carbon monoxide for 16 hours): reduced the abundance of the majority of metabolites tested
